Results published in PubChem BioAssay (NCI).
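Briefly, cells in 96-well plates were exposed to five compound concentrations for 48 h, and endpoints were estimated by linear interpolation. TGI marks complete inhibition of growth.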 Where a SMILES comes first, the peptide text is derived from it. The star is where a group is joined. Cbz = O=C(OCc1ccccc1)*

What follows are molecules tested on HT29 colon (assay: NCI tumour cell line growth inhibition, 48 h).

First: Cc1cc2oc(=N)c(C#N)c(C)c2cc1C
Second: CC(=O)c1c(C)n([O-])c2cc(Cl)c(Cl)cc2[n+]1=O
The TGI of the first is higher: > 100 µM for the first, 90.9 µM for the second.

First: CN(C)CCCC12CCCCC1=Nc1ccccc12 (configuration not stated)
Second: Nc1nc(N)c2c3c(cnc2n1)CC(c1ccccc1)CC3 (configuration not stated)
The TGI of the first is higher: > 100 µM for the first, 66.2 µM for the second.

`CCOC(=O)CC[C@H](NC(=O)[C@H](N)Cc1ccc(N(CCCl)CCCl)cc1)C(=O)OCC` and `O=C(O)CCC(NC(=O)OCc1ccccc1)C(=O)NC(Cc1cnc[nH]1)C(=O)O` (stereo not drawn) (Cbz-Glu-His-OH; configuration not given here) cannot be ordered by TGI: > 78 µM for the first, > 100 µM for the second.

`CN=C(N=Nc1c(O)[nH]c2ccccc12)SCC(=O)c1ccc(Br)cc1` and `O=c1c(/C=C/c2c(O)ccc3ccccc23)nnc2sc(-c3cccc(Br)c3)nn12` cannot be ordered by TGI: > 43.5 µM for the first, 82.1 µM for the second.

Going from `O=C1CCCC1CN1CCCC1` (configuration not stated) to `CN1CCN(C(=S)N2CCN(C)CC2)CC1`, the TGI falls from > 59.7 µM to 5.86 µM.

`N#Cc1c(N)nc2n[nH]c(N)c2c1-c1ccc(Cl)cc1` and `Nc1nc(SC/C=C/c2ccccc2)c2[nH]cnc2n1` cannot be ordered by TGI: > 58.6 µM for the first, > 100 µM for the second.

Compared with `COc1cc(NS(C)(=O)=O)ccc1Nc1c2ccccc2nc2c1[nH]c1ccc(NC3OC(CO)C(O)C(O)C3O)cc12` (configuration not stated), `COC(=O)C1=C(C(=O)NNc2ccccc2)N(c2cccnc2Cl)C(c2ccccc2)=CC1c1ccccc1` (configuration not stated) is higher in TGI: 0.938 µM for the first, > 100 µM for the second.

`CCOC(=O)c1nnc2c(C(=O)OCC)c3ccccc3n2c1N` and `CCOC(=O)NC(Nc1ccc(S(=O)(=O)Nc2nc(C)cc(C)n2)cc1)(C(=O)OCC)C(F)(F)F` (configuration not stated) cannot be ordered by TGI: > 100 µM for the first, > 100 µM for the second.

`Clc1ccc(C2C3COc4ccccc4C3=NN2c2ccccc2)cc1` (configuration not stated) and `CC12CC(c3ccccc3O1)C(C(=O)Nc1ccc(Cl)cc1Cl)C(=O)N2` (configuration not stated) cannot be ordered by TGI: > 100 µM for the first, > 100 µM for the second.

First: NC(=O)C(C(N)=O)=C(O)C(=O)/C=C(\O)c1ccccc1
Second: COC(=O)C1=C(O)C(C(=O)OC)[C@]2(O)[C@H](C(=O)OC)[C@H]1C[C@@H](c1ccc(C(F)(F)F)cc1)[C@H]2C(=O)OC (some centres not stated)
The TGI of the first is higher: > 100 µM for the first, 25.1 µM for the second.

`CCOC(=O)C12OC(CCC1=O)C(C(=O)OC)=C2C(=O)OC` (configuration not stated) and `C/C=C(/C)C(=O)O[C@@H]1CCN2CC[C@H](COC(=O)/C(=C/C)CO)C12` (some centres not stated) cannot be ordered by TGI: > 10 µM for the first, > 31.6 µM for the second.

`NNC(=O)c1n[nH]nc1C(=O)NN` was tested, and the TGI was 26.3 µM.

What follows are molecules tested on KM12 colon (assay: NCI tumour cell line growth inhibition, 48 h).

Compared with `Cc1cc2oc(=N)c(C#N)c(C)c2cc1C`, `CC(=O)c1c(C)n([O-])c2cc(Cl)c(Cl)cc2[n+]1=O` is lower in TGI: > 100 µM for the first, 33.5 µM for the second.

`CN(C)CCCC12CCCCC1=Nc1ccccc12` (configuration not stated) and `Nc1nc(N)c2c3c(cnc2n1)CC(c1ccccc1)CC3` (configuration not stated) cannot be ordered by TGI: > 100 µM for the first, > 100 µM for the second.

First: CCOC(=O)CC[C@H](NC(=O)[C@H](N)Cc1ccc(N(CCCl)CCCl)cc1)C(=O)OCC
Second: O=C(O)CCC(NC(=O)OCc1ccccc1)C(=O)NC(Cc1cnc[nH]1)C(=O)O (stereo not drawn) (Cbz-Glu-His-OH; configuration not given here)
The TGI of the first is lower: 31.8 µM for the first, > 100 µM for the second.

`CN=C(N=Nc1c(O)[nH]c2ccccc12)SCC(=O)c1ccc(Br)cc1` and `O=c1c(/C=C/c2c(O)ccc3ccccc23)nnc2sc(-c3cccc(Br)c3)nn12` cannot be ordered by TGI: > 39.5 µM for the first, 63.6 µM for the second.

Going from `O=C1CCCC1CN1CCCC1` (configuration not stated) to `CN1CCN(C(=S)N2CCN(C)CC2)CC1`, the TGI rises from 35 µM to > 100 µM.

`N#Cc1c(N)nc2n[nH]c(N)c2c1-c1ccc(Cl)cc1` and `Nc1nc(SC/C=C/c2ccccc2)c2[nH]cnc2n1` cannot be ordered by TGI: > 100 µM for the first, > 100 µM for the second.

First: COc1cc(NS(C)(=O)=O)ccc1Nc1c2ccccc2nc2c1[nH]c1ccc(NC3OC(CO)C(O)C(O)C3O)cc12 (configuration not stated)
Second: COC(=O)C1=C(C(=O)NNc2ccccc2)N(c2cccnc2Cl)C(c2ccccc2)=CC1c1ccccc1 (configuration not stated)
The TGI of the first is lower: 1.21 µM for the first, > 100 µM for the second.

Going from `CCOC(=O)c1nnc2c(C(=O)OCC)c3ccccc3n2c1N` to `CCOC(=O)NC(Nc1ccc(S(=O)(=O)Nc2nc(C)cc(C)n2)cc1)(C(=O)OCC)C(F)(F)F` (configuration not stated), the TGI rises from 66.8 µM to > 100 µM.

`Clc1ccc(C2C3COc4ccccc4C3=NN2c2ccccc2)cc1` (configuration not stated) and `CC12CC(c3ccccc3O1)C(C(=O)Nc1ccc(Cl)cc1Cl)C(=O)N2` (configuration not stated) cannot be ordered by TGI: > 100 µM for the first, > 100 µM for the second.

Compared with `NC(=O)C(C(N)=O)=C(O)C(=O)/C=C(\O)c1ccccc1`, `COC(=O)C1=C(O)C(C(=O)OC)[C@]2(O)[C@H](C(=O)OC)[C@H]1C[C@@H](c1ccc(C(F)(F)F)cc1)[C@H]2C(=O)OC` (some centres not stated) is lower in TGI: > 100 µM for the first, 53.3 µM for the second.

`CCOC(=O)C12OC(CCC1=O)C(C(=O)OC)=C2C(=O)OC` (configuration not stated) and `C/C=C(/C)C(=O)O[C@@H]1CCN2CC[C@H](COC(=O)/C(=C/C)CO)C12` (some centres not stated) cannot be ordered by TGI: > 10 µM for the first, > 100 µM for the second.

In the case of `NNC(=O)c1n[nH]nc1C(=O)NN`, the TGI is reported as > 100 µM.

Each molecule was assayed on SK-MEL-5 melanoma (assay: NCI tumour cell line growth inhibition, 48 h).

Compared with `Cc1cc2oc(=N)c(C#N)c(C)c2cc1C`, `CC(=O)c1c(C)n([O-])c2cc(Cl)c(Cl)cc2[n+]1=O` is lower in TGI: > 100 µM for the first, 26.4 µM for the second.

`CN(C)CCCC12CCCCC1=Nc1ccccc12` (configuration not stated) and `Nc1nc(N)c2c3c(cnc2n1)CC(c1ccccc1)CC3` (configuration not stated) cannot be ordered by TGI: > 100 µM for the first, > 100 µM for the second.

Compared with `CCOC(=O)CC[C@H](NC(=O)[C@H](N)Cc1ccc(N(CCCl)CCCl)cc1)C(=O)OCC`, `O=C(O)CCC(NC(=O)OCc1ccccc1)C(=O)NC(Cc1cnc[nH]1)C(=O)O` (stereo not drawn) (Cbz-Glu-His-OH; configuration not given here) is higher in TGI: 23.5 µM for the first, > 100 µM for the second.

Compared with `CN=C(N=Nc1c(O)[nH]c2ccccc12)SCC(=O)c1ccc(Br)cc1`, `O=c1c(/C=C/c2c(O)ccc3ccccc23)nnc2sc(-c3cccc(Br)c3)nn12` is lower in TGI: > 93.2 µM for the first, 37.5 µM for the second.

Compared with `O=C1CCCC1CN1CCCC1` (configuration not stated), `CN1CCN(C(=S)N2CCN(C)CC2)CC1` is higher in TGI: 31.9 µM for the first, > 100 µM for the second.

`N#Cc1c(N)nc2n[nH]c(N)c2c1-c1ccc(Cl)cc1` and `Nc1nc(SC/C=C/c2ccccc2)c2[nH]cnc2n1` cannot be ordered by TGI: > 81.1 µM for the first, > 100 µM for the second.

Going from `COc1cc(NS(C)(=O)=O)ccc1Nc1c2ccccc2nc2c1[nH]c1ccc(NC3OC(CO)C(O)C(O)C3O)cc12` (configuration not stated) to `COC(=O)C1=C(C(=O)NNc2ccccc2)N(c2cccnc2Cl)C(c2ccccc2)=CC1c1ccccc1` (configuration not stated), the TGI rises from 1.31 µM to > 100 µM.

Going from `CCOC(=O)c1nnc2c(C(=O)OCC)c3ccccc3n2c1N` to `CCOC(=O)NC(Nc1ccc(S(=O)(=O)Nc2nc(C)cc(C)n2)cc1)(C(=O)OCC)C(F)(F)F` (configuration not stated), the TGI rises from 51.8 µM to > 100 µM.

`Clc1ccc(C2C3COc4ccccc4C3=NN2c2ccccc2)cc1` (configuration not stated) and `CC12CC(c3ccccc3O1)C(C(=O)Nc1ccc(Cl)cc1Cl)C(=O)N2` (configuration not stated) cannot be ordered by TGI: > 100 µM for the first, > 100 µM for the second.

First: NC(=O)C(C(N)=O)=C(O)C(=O)/C=C(\O)c1ccccc1
Second: COC(=O)C1=C(O)C(C(=O)OC)[C@]2(O)[C@H](C(=O)OC)[C@H]1C[C@@H](c1ccc(C(F)(F)F)cc1)[C@H]2C(=O)OC (some centres not stated)
The TGI of the first is higher: > 100 µM for the first, 10.9 µM for the second.

`CCOC(=O)C12OC(CCC1=O)C(C(=O)OC)=C2C(=O)OC` (configuration not stated) and `C/C=C(/C)C(=O)O[C@@H]1CCN2CC[C@H](COC(=O)/C(=C/C)CO)C12` (some centres not stated) cannot be ordered by TGI: > 10 µM for the first, > 62 µM for the second.

In the case of `NNC(=O)c1n[nH]nc1C(=O)NN`, the TGI is reported as > 100 µM.

What follows are molecules tested on OVCAR-3 ovarian (assay: NCI tumour cell line growth inhibition, 48 h).

First: Cc1cc2oc(=N)c(C#N)c(C)c2cc1C
Second: CC(=O)c1c(C)n([O-])c2cc(Cl)c(Cl)cc2[n+]1=O
The TGI of the first is higher: > 100 µM for the first, 88.5 µM for the second.

`CN(C)CCCC12CCCCC1=Nc1ccccc12` (configuration not stated) and `Nc1nc(N)c2c3c(cnc2n1)CC(c1ccccc1)CC3` (configuration not stated) cannot be ordered by TGI: > 100 µM for the first, > 100 µM for the second.

First: CCOC(=O)CC[C@H](NC(=O)[C@H](N)Cc1ccc(N(CCCl)CCCl)cc1)C(=O)OCC
Second: O=C(O)CCC(NC(=O)OCc1ccccc1)C(=O)NC(Cc1cnc[nH]1)C(=O)O (stereo not drawn) (Cbz-Glu-His-OH; configuration not given here)
The TGI of the first is lower: 30.2 µM for the first, > 100 µM for the second.

Compared with `CN=C(N=Nc1c(O)[nH]c2ccccc12)SCC(=O)c1ccc(Br)cc1`, `O=c1c(/C=C/c2c(O)ccc3ccccc23)nnc2sc(-c3cccc(Br)c3)nn12` is higher in TGI: 28.2 µM for the first, > 100 µM for the second.

First: O=C1CCCC1CN1CCCC1 (configuration not stated)
Second: CN1CCN(C(=S)N2CCN(C)CC2)CC1
The TGI of the first is lower: 28.9 µM for the first, > 100 µM for the second.

First: N#Cc1c(N)nc2n[nH]c(N)c2c1-c1ccc(Cl)cc1
Second: Nc1nc(SC/C=C/c2ccccc2)c2[nH]cnc2n1
The TGI of the first is lower: 18.2 µM for the first, > 100 µM for the second.

Going from `COc1cc(NS(C)(=O)=O)ccc1Nc1c2ccccc2nc2c1[nH]c1ccc(NC3OC(CO)C(O)C(O)C3O)cc12` (configuration not stated) to `COC(=O)C1=C(C(=O)NNc2ccccc2)N(c2cccnc2Cl)C(c2ccccc2)=CC1c1ccccc1` (configuration not stated), the TGI rises from 2 µM to > 100 µM.

`CCOC(=O)c1nnc2c(C(=O)OCC)c3ccccc3n2c1N` and `CCOC(=O)NC(Nc1ccc(S(=O)(=O)Nc2nc(C)cc(C)n2)cc1)(C(=O)OCC)C(F)(F)F` (configuration not stated) cannot be ordered by TGI: > 100 µM for the first, > 100 µM for the second.

`Clc1ccc(C2C3COc4ccccc4C3=NN2c2ccccc2)cc1` (configuration not stated) and `CC12CC(c3ccccc3O1)C(C(=O)Nc1ccc(Cl)cc1Cl)C(=O)N2` (configuration not stated) cannot be ordered by TGI: > 100 µM for the first, > 100 µM for the second.

First: NC(=O)C(C(N)=O)=C(O)C(=O)/C=C(\O)c1ccccc1
Second: COC(=O)C1=C(O)C(C(=O)OC)[C@]2(O)[C@H](C(=O)OC)[C@H]1C[C@@H](c1ccc(C(F)(F)F)cc1)[C@H]2C(=O)OC (some centres not stated)
The TGI of the first is higher: > 100 µM for the first, 54.1 µM for the second.

`CCOC(=O)C12OC(CCC1=O)C(C(=O)OC)=C2C(=O)OC` (configuration not stated) and `C/C=C(/C)C(=O)O[C@@H]1CCN2CC[C@H](COC(=O)/C(=C/C)CO)C12` (some centres not stated) cannot be ordered by TGI: > 10 µM for the first, > 100 µM for the second.

`NNC(=O)c1n[nH]nc1C(=O)NN` was tested, and the TGI was > 100 µM.
